This is an account of results in patent US20250019387A1 (Frontier Medicines Corporation, priority 0001, published 2025).

pIC50: −log10 of the molar value.

The target in the first assay is KRAS G12C and cRAF (Ras-binding domain) interaction (Homo sapiens (Human), UniProt P01116, C118S/C51S/C80L/G12C). The assay is described as follows: Inhibition of KRAS G12C and cRAF binding (AlphaScreen).
KRAS G12C and cRAF (Ras-binding domain) interaction, sequence (P01116 other isoform, or with tags, fused parts or gaps G12C/C51S/C80L/C118S): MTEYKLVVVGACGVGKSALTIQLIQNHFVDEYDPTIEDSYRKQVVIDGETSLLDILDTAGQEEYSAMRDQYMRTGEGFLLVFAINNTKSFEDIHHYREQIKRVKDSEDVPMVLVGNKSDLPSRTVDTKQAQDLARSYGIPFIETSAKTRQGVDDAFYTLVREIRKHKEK
Details: not given
The essentials: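 IC50 values come from 4-parameter nonlinear regression of AlphaScreen signal (680 nm excitation, 570 nm emission). Compound plates sat 19-20 h at room temperature before RBD and donor/acceptor beads were added in Hepes pH 7.4 buffer with 150 mM NaCl, 5 mM MgCl2, 2% DMSO for 60-90 min; biotin-AviTag-GST replaced RBD to flag assay-technology interferers.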
For orientation: Bead proximity is the source of the signal in Alpha formats.
As a reminder, the pIC50 is −log10 of the IC50, conventionally taken in molar units. Compound `C=CC(=O)N1CC[C@@H](N(CC(F)F)c2nc(OC[C@@]34CCCN3C[C@H](F)C4)nc3c(F)c(-c4cccc5cccc(Cl)c45)ncc23)C1` [Example 194, 1-((R)-3-((7-(8-chloronaphthalen-1-yl)-8-fluoro-2-(((2R,7aS)-2-fluorotetrahydro-1H-pyrrolizin-7a(5H)-yl)methoxy)pyrido[4,3-d]pyrimidin-4-yl)(2,2-difluoroethyl)amino)pyrrolidin-1-yl)prop-2-en-1-one] gave a pIC50 of 7.00 to 8.00.

The assay is the same for the next values; noted with them: GMPPNP-loaded KRAS G12C, 19-20 hours incubation with compound; read-out: IC50 (Inhibition of KRAS G12C and cRAF Binding).
With `CN(c1nc(OCC23CCCN2CCC3)nc2c1CCN(c1cccc3cccc(Cl)c13)C2)[C@@H]1CCN(C(=O)/C=C/c2nc(C3COC3)no2)C1` [Example 156, (R,E)-1-(3-((7-(8-chloronaphthalen-1-yl)-2-((hexahydro-1H-pyrrolizin-7a-yl)methoxy)-5,6,7,8-tetrahydropyrido[3,4-d]pyrimidin-4-yl)(methyl)amino)pyrrolidin-1-yl)-3-(3-(oxetan-3-yl)-1,2,4-oxadiazol-5-yl)prop-2-en-1-one], the pIC50 is 7.00 to 8.00. The same measure, in the same setting: under `CN(c1nc(OC[C@@]23CCCN2C[C@H](F)C3)nc2c(F)c(-c3cccc4cccc(Cl)c34)ncc12)[C@@H]1CCN(C(=O)/C=C/c2nc(C(F)F)no2)C1` [Example 157, (E)-1-((R)-3-((7-(8-chloronaphthalen-1-yl)-8-fluoro-2-(((2R,7aS)-2-fluorotetrahydro-1H-pyrrolizin-7a(5H)-yl)methoxy)pyrido[4,3-d]pyrimidin-4-yl)(methyl)amino)pyrrolidin-1-yl)-3-(3-(difluoromethyl)-1,2,4-oxadiazol-5-yl)prop-2-en-1-one] stands greater than 8.00. For the compound `C=CC(=O)N1CC[C@@H](N(C)c2nc(OC[C@@]34CCCN3C[C@H](F)C4)nc3c(F)c(-c4cc(O)cc5ccccc45)ncc23)C1` [Example 158, 1-((R)-3-((8-fluoro-2-(((2R,7aS)-2-fluorohexahydro-1H-pyrrolizin-7a-yl)methoxy)-7-(3-hydroxynaphthalen-1-yl)pyrido[4,3-d]pyrimidin-4-yl)(methyl)amino)pyrrolidin-1-yl)prop-2-en-1-one], the negative logarithm of the IC50 (pIC50) is greater than 8.00. With `CN(c1nc(OC[C@@]23CCCN2C[C@H](F)C3)nc2c(F)c(-c3cccc4cccc(Cl)c34)ncc12)[C@@H]1CCN(C(=O)/C=C/c2nc(C3COC3)no2)C1` [Example 159, (E)-1-((R)-3-((7-(8-chloronaphthalen-1-yl)-8-fluoro-2-(((2R,7aS)-2-fluorohexahydro-1H-pyrrolizin-7a-yl)methoxy)pyrido[4,3-d]pyrimidin-4-yl)(methyl)amino)pyrrolidin-1-yl)-3-(3-(oxetan-3-yl)-1,2,4-oxadiazol-5-yl)prop-2-en-1-one], the pIC50 was greater than 8.00. For `Cc1noc(/C=C/C(=O)N2CC[C@@H](N(C)c3nc(OC[C@@]45CCCN4C[C@H](F)C5)nc4c3CCN(c3cccc5cccc(Cl)c35)C4)C2)n1` [Example 178, (E)-1-((R)-3-((7-(8-chloronaphthalen-1-yl)-2-(((2R,7aS)-2-fluorohexahydro-1H-pyrrolizin-7a-yl)methoxy)-5,6,7,8-tetrahydropyrido[3,4-d]pyrimidin-4-yl)(methyl)amino)pyrrolidin-1-yl)-3-(3-methyl-1,2,4-oxadiazol-5-yl)prop-2-en-1-one], the pIC50 is greater than 8.00. On the same count and under the same terms, then `C=CC(=O)N1C[C@@H](F)[C@H](N(C)c2nc(OCC34CCCN3CCC4)nc3c(F)c(-c4cccc5ccc(F)c(Cl)c45)ncc23)C1` [Example 184, 1-((3R,4R)-3-((7-(8-chloro-7-fluoronaphthalen-1-yl)-8-fluoro-2-((hexahydro-1H-pyrrolizin-7a-yl)methoxy)pyrido[4,3-d]pyrimidin-4-yl)(methyl)amino)-4-fluoropyrrolidin-1-yl)prop-2-en-1-one], with 7.00 to 8.00; and `C=CC(=O)N1CC[C@@H](N(C)c2nc(OC[C@@]34CCCN3C[C@H](F)C4)nc3c(F)c(-c4cccc5ccc(F)c(CC)c45)ncc23)C1` [Example 185, 1-((R)-3-((7-(8-ethyl-7-fluoronaphthalen-1-yl)-8-fluoro-2-(((2R,7aS)-2-fluorotetrahydro-1H-pyrrolizin-7a(5H)-yl)methoxy)pyrido[4,3-d]pyrimidin-4-yl)(methyl)amino)pyrrolidin-1-yl)prop-2-en-1-one], with 6.30 to 7.00; and `CN1CCC1C#CC(=O)N1CC[C@@H](N(C)c2nc(OC[C@@]34CCCN3C[C@H](F)C4)nc3c(F)c(-c4cccc5cccc(Cl)c45)ncc23)C1` (stereo partly drawn) [Example 186, 1-((R)-3-((7-(8-chloronaphthalen-1-yl)-8-fluoro-2-(((2R,7aS)-2-fluorohexahydro-1H-pyrrolizin-7a-yl)methoxy)pyrido[4,3-d]pyrimidin-4-yl)(methyl)amino)pyrrolidin-1-yl)-3-(1-methylazetidin-2-yl)prop-2-yn-1-one], with greater than 8.00. The same measure, in the same setting: under `C#Cc1c(F)ccc2cccc(-c3ncc4c(N(C)[C@@H]5CCN(C(=O)C=C)C5)nc(OC[C@@]56CCCN5C[C@H](F)C6)nc4c3F)c12` [Example 187, 1-((R)-3-((7-(8-ethynyl-7-fluoronaphthalen-1-yl)-8-fluoro-2-(((2R,7aS)-2-fluorohexahydro-1H-pyrrolizin-7a-yl)methoxy)pyrido[4,3-d]pyrimidin-4-yl)(methyl)amino)pyrrolidin-1-yl)prop-2-en-1-one] stands greater than 8.00; under `CN1CCOCC1C#CC(=O)N1CC[C@@H](N(C)c2nc(OC[C@@]34CCCN3C[C@H](F)C4)nc3c(F)c(-c4cccc5cccc(Cl)c45)ncc23)C1` (stereo partly drawn) [Example 188, 1-((R)-3-((7-(8-chloronaphthalen-1-yl)-8-fluoro-2-(((2R,7aS)-2-fluorohexahydro-1H-pyrrolizin-7a-yl)methoxy)pyrido[4,3-d]pyrimidin-4-yl)(methyl)amino)pyrrolidin-1-yl)-3-(4-methylmorpholin-3-yl)prop-2-yn-1-one], 6.30 to 7.00. On the same count and under the same terms, then `C=CC(=O)N1C[C@H](C)[C@@H](N(C)c2nc(OC[C@@]34CCCN3C[C@H](F)C4)nc3c(F)c(-c4cccc5cccc(Cl)c45)ncc23)C1` [Example 189, 1-((3R,4S)-3-((7-(8-chloronaphthalen-1-yl)-8-fluoro-2-(((2R,7aS)-2-fluorotetrahydro-1H-pyrrolizin-7a(5H)-yl)methoxy)pyrido[4,3-d]pyrimidin-4-yl)(methyl)amino)-4-methylpyrrolidin-1-yl)prop-2-en-1-one], with 6.30 to 7.00; and `C=CC(=O)N1CC[C@@H](Nc2nc(OC[C@@]34CCCN3C[C@H](F)C4)nc3c(F)c(-c4cccc5cccc(Cl)c45)ncc23)[C@H]1C` [Example 190, 1-((2R,3R)-3-((7-(8-chloronaphthalen-1-yl)-8-fluoro-2-(((2R,7aS)-2-fluorotetrahydro-1H-pyrrolizin-7a(5H)-yl)methoxy)pyrido[4,3-d]pyrimidin-4-yl)amino)-2-methylpyrrolidin-1-yl)prop-2-en-1-one], with 6.30 to 7.00. With `C=CC(=O)N1CC[C@@H](N(C)c2nc(OC[C@@]34CCCN3C[C@H](F)C4)nc3c(F)c(-c4cccc5ccc(F)c(F)c45)ncc23)C1` [Example 192, 1-((R)-3-((7-(7,8-difluoronaphthalen-1-yl)-8-fluoro-2-(((2R,7aS)-2-fluorotetrahydro-1H-pyrrolizin-7a(5H)-yl)methoxy)pyrido[4,3-d]pyrimidin-4-yl)(methyl)amino)pyrrolidin-1-yl)prop-2-en-1-one], the pIC50 is 7.00 to 8.00.

Take `CN(c1nc(OC[C@@]23CCCN2C[C@H](F)C3)nc2c(F)c(-c3cccc4cccc(Cl)c34)ncc12)[C@@H]1CCN(C(=O)C#C[C@]2(C)CCCN2C)C1` [Example 193, 1-((R)-3-((7-(8-chloronaphthalen-1-yl)-8-fluoro-2-(((2R,7aS)-2-fluorohexahydro-1H-pyrrolizin-7a-yl)methoxy)pyrido[4,3-d]pyrimidin-4-yl)(methyl)amino)pyrrolidin-1-yl)-3-((S)-1,2-dimethylpyrrolidin-2-yl)prop-2-yn-1-one]: the pIC50 was 7.00 to 8.00. Take `C=CC(=O)N1CC[C@@H](N(C)c2nc(OC[C@@]34CCCN3C[C@H](F)C4)nc3c(F)c(-c4cccc5ccc(F)c(C)c45)ncc23)C1` [Example 195, 1-((R)-3-((8-fluoro-7-(7-fluoro-8-methylnaphthalen-1-yl)-2-(((2R,7aS)-2-fluorotetrahydro-1H-pyrrolizin-7a(5H)-yl)methoxy)pyrido[4,3-d]pyrimidin-4-yl)(methyl)amino)pyrrolidin-1-yl)prop-2-en-1-one]: the pIC50 was 7.00 to 8.00. Same read-out and setting: then `CCc1c(F)ccc2cccc(-c3ncc4c(N(C)[C@@H]5CCN(C(=O)/C=C/[C@H]6CCN6C)C5)nc(OC[C@@]56CCCN5C[C@H](F)C6)nc4c3F)c12` [Example 196, (E)-1-((R)-3-((7-(8-ethyl-7-fluoronaphthalen-1-yl)-8-fluoro-2-(((2R,7aS)-2-fluorotetrahydro-1H-pyrrolizin-7a(5H)-yl)methoxy)pyrido[4,3-d]pyrimidin-4-yl)(methyl)amino)pyrrolidin-1-yl)-3-((R)-1-methylazetidin-2-yl)prop-2-en-1-one], with 7.00 to 8.00; and `CN(c1nc(OC[C@@]23CCCN2C[C@H](F)C3)nc2c(F)c(-c3cccc4cccc(Cl)c34)ncc12)[C@@H]1CCN(C(=O)C#C[C@@]2(C)CCCN2C)C1` [Example 197, 1-((R)-3-((7-(8-chloronaphthalen-1-yl)-8-fluoro-2-(((2R,7aS)-2-fluorohexahydro-1H-pyrrolizin-7a-yl)methoxy)pyrido[4,3-d]pyrimidin-4-yl)(methyl)amino)pyrrolidin-1-yl)-3-((R)-1,2-dimethylpyrrolidin-2-yl)prop-2-yn-1-one], with 7.00 to 8.00.
